In test [1] the target is T1, Caspase-3 (Homo sapiens, UniProt P42574).
T1 construct: the Caspase-2 and Caspase-3 are human recombinant active enzymes; purchased R&D Systems 707-C3-010/CF
T1 sequence (P42574 29-175 limits assumed): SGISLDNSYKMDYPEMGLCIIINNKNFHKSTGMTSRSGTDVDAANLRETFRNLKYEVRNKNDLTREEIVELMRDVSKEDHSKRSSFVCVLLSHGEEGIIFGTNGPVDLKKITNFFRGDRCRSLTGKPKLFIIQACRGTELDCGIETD
T1 sequence (P42574 176-277 limits assumed): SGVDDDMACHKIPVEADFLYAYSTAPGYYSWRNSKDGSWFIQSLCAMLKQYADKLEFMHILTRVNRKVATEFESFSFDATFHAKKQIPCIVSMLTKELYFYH
Description: Caspase-3 inhibition assay for irreversible inhibitors (kinact/KI, continuous method). The settings on record: human recombinant Caspase-3 0.5 nM, 37° C. It counts as biochemical. Here is the method:
The efficiency of the comparative compound Δ2Me-TRP601, that is an already known group II Caspase inhibitor (inhibitor of Caspase-2, Caspase-3 and Caspase-7), has been assessed by a similar protocol described in Chauvier et al., 2011 Cell Death Dis 2011, 2:e203.
In this example, the Caspase-2 and Caspase-3 are human recombinant active enzymes that are respectively provided by Enzo Life® (ALX-201-057-U100) and R&D Systems® (707-C3-010/CF).
Caspase-2 is used at a final concentration of 0.1 nM in a “Caspase-2 buffer” containing 20 mM HEPES (pH 7.4), 5 mM DTT, 2 mM EDTA, 0.1% CHAPS and 800 mM succinate. […]
The peptide substrates used for the enzymatic activity measurements are Ac-DEVD-AMC and Ac-VDVAD-AMC commercialized by EnzoLife® (respectively referenced ALX-260-031-M005 and ALX-260-060-M005). […] The releasing of AMC enables to follow the enzymatic activity in fluorescence unit RFU over time in a 96-wells microplate.
The fluorescence values are measured at 37° C. with a spectrofluorometer with a microplate reader BMG FLUOstar OPTIMA. […]
The inhibitory properties of the tested compounds are evaluated by the determination of the kinact/KI ratio regarding either Caspase-2 or Caspase-3 wherein: • kinact is the maximal inactivation rate constant, and • KI is the dissociation constant according to: […]
The activities of the enzyme are measured between 45 and 60 minutes. […]

Test [2] deals with HeLa cells. In words: Protection against vincristine-induced cell death, propidium iodide flow cytometry. Further details: Index of cell death: key to the marks not given beside the values. In kind it is cell-based, human. Here is the method: Human HeLa cells are used in this model. HeLa cells (cervical cancer cell line) were obtained from American Type Cell Collection (ATCC), and were cultured in Dulbecco's Modified Eagle Medium (DMEM, High Glucose, GlutaMAX™, Pyruvate) (Gibco, Life technologies), supplemented with 10% FCS and antibiotics (Gibco, Life technologies).
Human HeLa cells are treated with a solution of Vincristine (Sigma Aldrich) (diluted in water at 5 mM). Vincristine works partly by binding to the Tubulin protein, stopping the cell from separating its chromosomes during the metaphase; the cell then undergoes apoptosis through a caspase-dependent process.
Propidium iodide (PI) (Sigma Aldrich) is used to evaluate plasma membrane permeabilisation, a sign of cell death.
24 hours before pharmacological treatment, HeLa cells were plated into 24-well plates. […] Cells were exposed or not (control), to 20 nM Vincristine for 48 hours.
The content of each well is collected is added to PBS and then centrifuged (900 rpm; 5 min).
The pellet obtained is put into 300 μL of a medium comprising propidium iodide and incubated (37° C., 5% CO2) in the dark for 5 minutes and then subjected to flow cytometry analysis.
Fluorescence-Activated Cell Sorting was performed using a FACSCalibur cytometer (Becton Dickinson, San Jose, Calif.). For each sample, data from 5,000 Cells were registered and analyzed with the CellQuest Pro software (Becton Dickinson). Analysis included FSC (Forward Scatter/relating to the cells'size) and SSC (Side Scatter/relating to the cells' granularity) parameters together with FL-1 and FL-3 channel.
The percentage of propidium iodide positive cells gives an estimation of cell death.
Background: Flow cytometry measures light scatter and fluorescence of single cells or particles in a stream.

Where a SMILES comes first, the peptide text is derived from it. [ ]: non-standard residue; d: D form. The star is where a group is joined. Pro(3S-CH2tBu) = CC(C)(C)C[C@H]1CCN[C@@H]1C(=O)O; Quinaldoyl = O=C(c1ccc2ccccc2n1)*; X1 = c1ncc(CO*)s1

With `CC(C)[C@H](NC(=O)c1ccc2ccccc2n1)C(=O)N[C@@H](CC(=O)O)C(=O)N[C@H](C(=O)N1CC[C@H](CC(C)(C)C)[C@H]1C(=O)N[C@@H](CC(=O)O)C(=O)COc1c(F)cccc1F)C(C)C` (single isomer, unassigned) [Compound 2 enantiomer a], in test [1], the “k3/KI Casp3” value was 2 625 M^−1 · s^−1. As for `CC(C)[C@H](NC(=O)c1ccc2ccccc2n1)C(=O)N[C@@H](CC(=O)O)C(=O)N[C@H](C(=O)N1CC[C@H](CC(C)(C)C)[C@H]1C(=O)N[C@@H](CC(=O)O)C(=O)OCc1cncs1)C(C)C` [Compound 3, (S)-4-(((S)-1-((2S,3S)-2-(((S)-3-carboxy-1-oxo-1-(thiazol-5 - ylmethoxy)propan-2-yl)carbamoyl)-3-neopenthylpyrrolidin-1-yl)-3-methyl-1-oxobutan-2-yl)amino)-3-((S)-3-methyl-2-(quinoline-2-carboxamido)butanamido)-4-oxobutanoic acid] (Quinaldoyl-VDV[Pro(3S-CH2tBu)]D-X1), the “Index of cell death” value in test [2] (20 nM Vincristine for 48 hours, propidium iodide positive cells) was “++”. In test [2] (compound added 1 hour before vincristine), the “Protection against apoptotic death induced by vincristine” value was “protect the cells against apoptotic death induced by vincristine in a dose-dependent manner”.

The values above are taken from patent US11407741B2, “Compounds and their use as selective inhibitors of caspase-2” (priority 2017, dated 2022).
